Measured values reported in patent publication US10519134B2, “Pyrazole compounds and methods of making and using same” (Lundbeck La Jolla Research Center, Inc., priority 2015, dated 2019).

Experiments:
MAGL = biological target: T1, MAGL (Mus musculus, UniProt O35678); assay: In vitro competitive activity-based protein profiling (mouse), MAGL gel band; type: biochemical; conditions: for inhibition at 1 µM: read-out: MAGL % inh. 1 μM; for IC50: mouse
T1 construct: Proteomes (mouse brain membrane fraction or cell lysates); from tissue; host or cells: mouse brain membrane fraction (or cell lysates)
T1 sequence (O35678 1-303): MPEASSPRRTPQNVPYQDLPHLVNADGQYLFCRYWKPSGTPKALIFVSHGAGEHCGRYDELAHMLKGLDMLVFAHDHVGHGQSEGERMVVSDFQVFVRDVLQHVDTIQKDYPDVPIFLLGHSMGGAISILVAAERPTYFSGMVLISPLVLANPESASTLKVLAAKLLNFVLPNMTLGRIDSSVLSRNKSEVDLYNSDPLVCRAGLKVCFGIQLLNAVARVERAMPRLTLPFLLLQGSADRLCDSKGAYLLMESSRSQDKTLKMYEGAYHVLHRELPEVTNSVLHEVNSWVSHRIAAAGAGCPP
Experimental: (§1) In Vitro Competitive Activity-Based Protein Profiling (Mouse).
(§2) Proteomes (mouse brain membrane fraction or cell lysates) (50 μL, 1.0 mg/mL total protein concentration) were preincubated with varying concentrations of inhibitors at 37° C. After 30 min, FP-Rh or HT-01 (1.0 μL, 50 μM in DMSO) was added and the mixture was incubated for another 30 min at 37° C. Reactions were quenched with SDS loading buffer (15 μL—4×) and run on SDS-PAGE. Following gel imaging, serine hydrolase activity was determined by measuring fluorescent intensity of gel bands corresponding to MAGL, ABHD6, and FAAH, using ImageJ 1.43u software.

FAAH = biological target: T2, FAAH (Mus musculus, UniProt O08914); assay: In vitro competitive activity-based protein profiling (mouse), FAAH gel band; type: biochemical; conditions: for inhibition at 1 µM: read-out: FAAH % inh. 1 μM; for IC50: mouse
T2 construct: Proteomes (mouse brain membrane fraction or cell lysates); from tissue; host or cells: mouse brain membrane fraction (or cell lysates)
T2 sequence (O08914 1-579): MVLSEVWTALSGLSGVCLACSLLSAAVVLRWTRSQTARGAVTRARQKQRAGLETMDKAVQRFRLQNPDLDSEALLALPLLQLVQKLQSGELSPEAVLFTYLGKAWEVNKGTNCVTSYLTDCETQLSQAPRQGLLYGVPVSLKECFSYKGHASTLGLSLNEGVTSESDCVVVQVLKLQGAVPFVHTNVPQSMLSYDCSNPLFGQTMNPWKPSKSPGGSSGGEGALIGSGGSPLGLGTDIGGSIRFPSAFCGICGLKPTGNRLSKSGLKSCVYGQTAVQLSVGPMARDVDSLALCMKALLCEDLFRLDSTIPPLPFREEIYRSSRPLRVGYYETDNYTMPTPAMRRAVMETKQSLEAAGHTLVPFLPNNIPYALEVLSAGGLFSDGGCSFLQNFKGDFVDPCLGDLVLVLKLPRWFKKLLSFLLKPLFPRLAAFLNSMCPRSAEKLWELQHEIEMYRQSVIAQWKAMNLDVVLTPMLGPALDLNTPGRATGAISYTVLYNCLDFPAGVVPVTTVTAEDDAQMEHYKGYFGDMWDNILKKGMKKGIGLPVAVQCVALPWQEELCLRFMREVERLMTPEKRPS
Experimental: as §1, §2

inhibition at 1 µM (MAGL) [%]	inhibition at 1 µM (FAAH) [%]	IC50 (MAGL) [µM]	IC50 (FAAH) [µM]	SMILES
≥ 75	0 to 25	–	–	CC(=O)Nc1ccn(C(=O)N2CCC3(CCCN3Cc3ccc(C(=O)O)c(C(F)(F)F)c3)CC2)n1 [Example 110, 4-((8-(3-acetamido-1H-pyrazole-1-carbonyl)-1,8-diazaspiro[4.5]decan-1-yl)methyl)-2-(trifluoromethyl)benzoic Acid]
≥ 75	25 to 50	–	–	COc1cc(-c2ccccc2)ccc1CN1CCN(C(=O)n2ccc(NS(C)(=O)=O)n2)CC1 [Example 151, N-(1-(4-((3-methoxy-[1,1′-biphenyl]-4-yl)methyl)piperazine-1-carbonyl)-1H-pyrazol-3-yl) methanesulfonamide]
0 to 25	0 to 25	–	–	CS(=O)(=O)Nc1ccn(C(=O)N2CCC3(CCCN3Cc3ccc(C(F)(F)F)cc3N3CCC(C(=O)O)CC3)CC2)n1 [Example 243, 1-(2-((8-(3-(methylsulfonamido)-1H-pyrazole-1-carbonyl)-1,8-diazaspiro[4.5]decan-1-yl)methyl)-5-(trifluoromethyl)phenyl)piperidine-4-carboxylic acid]
50 to 75	0 to 25	–	–	CS(=O)(=O)Nc1ccn(C(=O)N2CCN(Cc3ccc(C(F)(F)F)cc3N3CCN(CC(=O)O)CC3)CC2)n1 [Example 241, 2-(4-(2-((4-(3-(methylsulfonamido)-1H-pyrazole-1-carbonyl)piperazin-1-yl)methyl)-5-(trifluoromethyl)phenyl)piperazin-1-yl)acetic acid]
≥ 75	≥ 75	≤ 0.1	0.1 to 1	CC(=O)Nc1ccn(C(=O)N2CCN(Cc3cc(Oc4nc5ccccc5s4)cc(C(F)(F)F)c3)CC2)n1 [Example 76, N-(1-(4-(3-(benzo[d]thiazol-2-yloxy)-5-(trifluoromethyl)benzyl)piperazine-1-carbonyl)-1H-pyrazol-3-yl)acetamide]
≥ 75	0 to 25	–	–	CC(=O)Nc1ccn(C(=O)N2CCN(Cc3ccc(C(F)(F)F)cc3N3CCC(O)CC3)CC2)n1 [Example 276, N-(1-(4-(2-(4-hydroxypiperidin-1-yl)-4-(trifluoromethyl)benzyl)piperazine-1-carbonyl)-1H-pyrazol-3-yl)acetamide]
≥ 75	0 to 25	≤ 0.1	1 to 10	CC(=O)Nc1ccn(C(=O)N2CCC3(CCCN3Cc3ccc(Cl)cc3N3CC4COCC4C3)CC2)n1 (stereo not drawn) [Example 17, N-(1-(1-(4-chloro-2-(dihydro-1H-furo[3,4-c]pyrrol-5(3H,6H,6aH)-yl)benzyl)-1,8-diazaspiro[4.5]decane-8-carbonyl)-1H-pyrazol-3-yl)acetamide]
≥ 75	0 to 25	0.1 to 1	1 to 10	CC(=O)Nc1ccn(C(=O)N2CCC3(CCCN3Cc3ccc4c(c3)OCCO4)CC2)n1 [Example 98, N-(1-(1-((2,3-dihydrobenzo[b][1,4]dioxin-6-yl)methyl)-1,8-diazaspiro[4.5]decane-8-carbonyl)-1H-pyrazol-3-yl)acetamide]
≥ 75	0 to 25	–	–	CS(=O)(=O)Nc1ccn(C(=O)N2CCC3(CCCN3Cc3cc(N4CCOCC4)cc(C(F)(F)F)c3)CC2)n1 [Example 162, N-(1-(1-(3-morpholino-5-(trifluoromethyl)benzyl)-1,8-diazaspiro[4.5]decane-8-carbonyl)-1H-pyrazol-3-yl) methanesulfonamide]
≥ 75	0 to 25	–	–	CS(=O)(=O)Nc1ccn(C(=O)N2CCN(Cc3ccc(C(F)(F)F)c(N4CCOCC4)c3)CC2)n1 [Example 168, N-(1-(4-(3-morpholino-4-(trifluoromethyl)benzyl)piperazine-1-carbonyl)-1H-pyrazol-3-yl) methanesulfonamide]
50 to 75	0 to 25	–	–	CC(=O)N(C)c1ccn(C(=O)N2CCC3(CCCN3Cc3ccc(C(F)(F)F)cc3N3CCCC3)CC2)n1 [Example 68, N-methyl-N-(1-(1-(2-(pyrrolidin-1-yl)-4-(trifluoromethyl)benzyl)-1,8-diazaspiro[4.5]decane-8-carbonyl)-1H-pyrazol-3-yl)acetamide]
0 to 25	0 to 25	–	–	CS(=O)(=O)Nc1ccn(C(=O)N2CCC3(CCCN3Cc3cccc(Cl)c3)CC2)n1 [Example 148, N-(1-(1-(3-chlorobenzyl)-1,8-diazaspiro[4.5]decane-8-carbonyl)-1H-pyrazol-3-yl)methanesulfonamide]
≥ 75	25 to 50	–	–	CC(=O)Nc1ccn(C(=O)N2CCC3(CCCN3Cc3cc(Cl)cc(N4CC5CN(C(C)=O)CC5C4)c3)CC2)n1 (stereo not drawn) [Example 65, N-(1-(1-(3-(5-acetylhexahydropyrrolo[3,4-c]pyrrol-2(1H)-yl)-5-chlorobenzyl)-1,8-diazaspiro[4.5]decane-8-carbonyl)-1H-pyrazol-3-yl)acetamide]
≥ 75	0 to 25	≤ 0.1	1 to 10	CC(=O)Nc1ccn(C(=O)N2CCN(Cc3ccc(Cl)cc3N3CCC(F)(F)CC3)CC2)n1 [Example 57, N-(1-(4-(4-chloro-2-(4,4-difluoropiperidin-1-yl)benzyl)piperazine-1-carbonyl)-1H-pyrazol-3-yl)acetamide]
≥ 75	0 to 25	0.1 to 1	1 to 10	CC(=O)Nc1ccn(C(=O)N2CCC3(CCCN3Cc3ccc(Cl)cc3N3CCOCC3)CC2)n1 [Example 16, N-(1-(1-(4-chloro-2-morpholinobenzyl)-1,8-diazaspiro[4.5]decane-8-carbonyl)-1H-pyrazol-3-yl)acetamide]
50 to 75	0 to 25	–	–	CC(=O)N1CC2(CCN(c3ccccc3CN3CCN(C(=O)n4ccc(NS(C)(=O)=O)n4)CC3)C2)C1 [Example 122, N-(1-(4-(2-(2-acetyl-2,6-diazaspiro[3.4]octan-6-yl)benzyl)piperazine-1-carbonyl)-1H-pyrazol-3-yl) methanesulfonamide]
≥ 75	0 to 25	–	–	CS(=O)(=O)Nc1ccn(C(=O)N2CCN(Cc3ccc(Cl)c(-c4cnccn4)c3)CC2)n1 [Example 283, N-(1-(4-(4-chloro-3-(pyrazin-2-yl)benzyl)piperazine-1-carbonyl)-1H-pyrazol-3-yl) methanesulfonamide]
≥ 75	0 to 25	≤ 0.1	1 to 10	CS(=O)(=O)Nc1ccn(C(=O)N2CCN(Cc3ccc(Cl)cc3N3CCCCC3)CC2)n1 [Example 128, N-(1-(4-(4-chloro-2-(piperidin-1-yl)benzyl)piperazine-1-carbonyl)-1H-pyrazol-3-yl) methanesulfonamide]
0 to 25	0 to 25	–	–	CCN1CCN(c2cc(C(F)(F)F)ccc2CN2CCCC23CCN(C(=O)n2ccc(NS(C)(=O)=O)n2)CC3)CC1 [Example 238, N-(1-(1-(2-(4-ethylpiperazin-1-yl)-4-(trifluoromethyl)benzyl)-1,8-diazaspiro[4.5]decane-8-carbonyl)-1H-pyrazol-3-yl) methanesulfonamide]
–	–	≤ 0.1	–	CS(=O)(=O)Nc1ccn(C(=O)N2CCN(Cc3ccc(C(F)(F)F)c(C4CCN(CC(=O)O)CC4)c3)CC2)n1 [Example 119, 2-(4-(5-((4-(3-(methylsulfonamido)-1H-pyrazole-1-carbonyl)piperazin-1-yl)methyl)-2-(trifluoromethyl)phenyl)piperidin-1-yl)acetic Acid]
